Assays:
TYK2 [1] = biological target: T1, TYK2 (Homo sapiens, UniProt P29597); experiment: HEK-Blue IFNα/β reporter assay (SEAP) for TYK2 pseudokinase inhibition; type: cell-based; settings: HEK-Blue IFNα/β cells, 1 ng/mL human recombinant IFNα
Experimental: (§1) HEK-Blue™ IL-23 and IFNα/β cells with a stably-integrated cytokine receptor and STAT3 or STAT1 express STAT-inducible secreted embryonic alkaline phosphatase (SEAP) reporter gene upon cytokine stimulation. These cells are plated in DMVEM (Gibco) containing 10% heat-inactivated FBS (Gibco) and 100 U/mL PenStrep (Gibco) at 37° C. under […] conditions for 20-22 hours. The cells are then pretreated with serially diluted test compounds for 60 min prior to stimulation with either 10 ng/mL human recombinant IL-23 (Miltenyl Biotech) or 1 ng/mL human recombinant IFNα (InvivoGen) for 22-24 hours for IL-23 or 16-18 h for IFNα. SEAP induction is measured using the QUANTI Blue™ Solution (InvivoGen) according to the manufacturer's instructions. Inhibition data are calculated by comparison to no inhibitor control wells for 000 inhibition and non-stimulated control wells for 10000 inhibition. Dose response curves are generated to determine the concentration required to inhibit 5000 of cellular response (IC50) as derived by non-linear regression analysis.

TYK2 [2] = biological target: T1, TYK2; experiment: HEK-Blue IL-23 reporter assay (SEAP) for TYK2 pseudokinase inhibition; type: cell-based; set-up: HEK-Blue™ IL-23 and IFNα/β cells with a stably-integrated cytokine receptor and STAT3 or STAT1; host or cells: HEK-Blue IL-23 / HEK-Blue IFNα/β cells (HEK293 background); settings: HEK-Blue IL-23 cells, 10 ng/mL human recombinant IL-23, SEAP reporter; read-out: IL23 IC50
Experimental: as §1

T1 sequence (P29597 whole entry): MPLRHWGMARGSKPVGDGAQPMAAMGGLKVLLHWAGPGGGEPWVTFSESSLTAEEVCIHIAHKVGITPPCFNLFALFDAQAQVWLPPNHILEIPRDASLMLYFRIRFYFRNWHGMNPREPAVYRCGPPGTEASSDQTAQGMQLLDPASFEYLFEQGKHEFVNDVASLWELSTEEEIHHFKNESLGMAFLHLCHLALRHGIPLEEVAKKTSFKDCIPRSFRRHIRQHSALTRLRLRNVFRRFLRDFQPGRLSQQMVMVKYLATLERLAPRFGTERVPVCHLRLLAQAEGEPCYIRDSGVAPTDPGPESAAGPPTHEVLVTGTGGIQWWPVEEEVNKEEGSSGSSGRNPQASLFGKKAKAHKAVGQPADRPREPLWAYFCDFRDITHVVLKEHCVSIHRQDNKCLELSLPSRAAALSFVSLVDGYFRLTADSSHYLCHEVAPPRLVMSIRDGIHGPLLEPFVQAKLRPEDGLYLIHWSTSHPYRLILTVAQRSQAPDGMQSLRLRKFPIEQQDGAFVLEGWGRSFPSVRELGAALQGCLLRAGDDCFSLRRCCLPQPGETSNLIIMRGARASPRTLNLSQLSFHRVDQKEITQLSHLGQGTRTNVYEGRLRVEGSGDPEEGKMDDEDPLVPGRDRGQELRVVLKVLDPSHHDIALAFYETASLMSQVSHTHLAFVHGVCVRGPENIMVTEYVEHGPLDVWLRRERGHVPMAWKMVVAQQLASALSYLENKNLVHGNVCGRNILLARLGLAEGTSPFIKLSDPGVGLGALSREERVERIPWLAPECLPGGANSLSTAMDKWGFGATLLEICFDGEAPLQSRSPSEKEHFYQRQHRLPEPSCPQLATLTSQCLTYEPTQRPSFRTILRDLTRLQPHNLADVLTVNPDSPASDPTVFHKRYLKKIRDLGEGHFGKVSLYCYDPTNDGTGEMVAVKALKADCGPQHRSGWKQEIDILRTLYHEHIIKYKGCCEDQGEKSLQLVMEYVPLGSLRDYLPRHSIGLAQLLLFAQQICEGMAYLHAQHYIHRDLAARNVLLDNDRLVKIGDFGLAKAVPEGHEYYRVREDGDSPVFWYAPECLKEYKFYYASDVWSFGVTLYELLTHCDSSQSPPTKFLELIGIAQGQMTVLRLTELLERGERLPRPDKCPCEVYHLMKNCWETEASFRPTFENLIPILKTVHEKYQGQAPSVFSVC

Row | Compound | IC50 (TYK2 [1]) | IC50 (TYK2 [2])
1 | Cn1cc(Nc2cc3c(cn2)c(=O)[nH]n3-c2ccccc2)cn1 [Compound I-5, 6-((1-methyl-1H-pyrazol-4-yl)amino)-1-phenyl-1,2-dihydro-3H-pyrazolo[4,3-c]pyridin-3-one] | 30 to 90 µM | 10 to 30 µM
2 | COCCC(=O)Nc1cc2c(cn1)c(=O)[nH]n2-c1ccccc1 [Compound I-7, 3-methoxy-N-(3-oxo-1-phenyl-2,3-dihydro-1H-pyrazolo[4,3-c]pyridin-6-yl)propanamide] | 30 to 90 µM | 10 to 30 µM
3 | O=C(Nc1cc2c(cn1)c(=O)[nH]n2-c1ccccc1)c1ccccn1 [Compound I-9, N-(3-oxo-1-phenyl-2,3-dihydro-1H-pyrazolo[4,3-c]pyridin-6-yl)picolinamide] | > 90 µM | > 90 µM
4 | O=C(Nc1cc2c(cn1)c(=O)[nH]n2-c1ccccc1)c1cccnc1 [Compound I-10, N-(3-oxo-1-phenyl-2,3-dihydro-1H-pyrazolo[4,3-c]pyridin-6-yl)nicotinamide] |  | > 90 µM
5 | CC(C)N1CCN(c2cc3c(cn2)c(=O)[nH]n3-c2ccccc2)C1=O [Compound I-13, 6-(3-isopropyl-2-oxoimidazolidin-1-yl)-1-phenyl-1,2-dihydro-3H-pyrazolo[4,3-c]pyridin-3-one] |  | 30 to 90 µM
6 | COc1ccccc1-n1[nH]c(=O)c2cnc(NC(=O)C3CC3)cc21 [Compound I-15, N-(1-(2-methoxyphenyl)-3-oxo-2,3-dihydro-1H-pyrazolo[4,3-c]pyridin-6-yl)cyclopropanecarboxamide] | 30 to 90 µM | 10 to 30 µM
7 | COc1ccccc1-n1[nH]c(=O)c2cnc(Nc3ccc(F)cn3)cc21 [Compound I-16, 6-((5-fluoropyridin-2-yl)amino)-1-(2-methoxyphenyl)-1,2-dihydro-3H-pyrazolo[4,3-c]pyridin-3-one] | > 90 µM | 30 to 90 µM
8 | Cc1cc(Nc2cc3c(cn2)c(=O)[nH]n3-c2ccccc2S(C)(=O)=O)nc(C)n1 [Compound I-20, 6-((2,6-dimethylpyrimidin-4-yl)amino)-1-(2-(methylsulfonyl)phenyl)-1,2-dihydro-3H-pyrazolo[4,3-c]pyridin-3-one] | 30 to 90 µM | 10 to 30 µM
9 | Cc1cc(Nc2cc3c(cn2)c(=O)[nH]n3-c2cccc(C(N)=O)c2)nc(C)n1 [Compound I-21, 3-(6-((2,6-dimethylpyrimidin-4-yl)amino)-3-oxo-2,3-dihydro-1H-pyrazolo[4,3-c]pyridin-1-yl)benzamide] |  | > 90 µM
10 | COc1cccc(-n2[nH]c(=O)c3cnc(Nc4cc(C)nc(C)n4)c(F)c32)c1 [Compound I-24, 6-((2,6-dimethylpyrimidin-4-yl)amino)-7-fluoro-1-(3-methoxyphenyl)-1,2-dihydro-3H-pyrazolo[4,3-c]pyridin-3-one] | > 90 µM | 10 to 30 µM
11 | Cc1cc(Nc2cc3c(cn2)c(=O)[nH]n3-c2cccc(S(C)(=O)=O)c2)nc(C)n1 [Compound I-27, 6-((2,6-dimethylpyrimidin-4-yl)amino)-1-(3-(methylsulfonyl)phenyl)-1,2-dihydro-3H-pyrazolo[4,3-c]pyridin-3-one] |  | > 90 µM
12 | Cc1cc(Nc2cc3c(cn2)c(=O)[nH]n3-c2ccc(S(C)(=O)=O)cc2)nc(C)n1 [Compound I-32, 6-((2,6-dimethylpyrimidin-4-yl)amino)-1-(4-(methylsulfonyl)phenyl)-1,2-dihydro-3H-pyrazolo[4,3-c]pyridin-3-one] | > 90 µM | 10 to 30 µM
13 | CC(C)(C)OC(=O)Nc1cc2c(cn1)c(=O)[nH]n2-c1ccccc1 [Compound I-35, tert-butyl N-{3-oxo-1-phenyl-1H,2H,3H-pyrazolo[4,3-c]pyridin-6-yl}carbamate] | > 90 µM | > 90 µM
14 | COc1cccc(-n2[nH]c(=O)c3cnc(Nc4cc(C(F)(F)F)ccn4)cc32)c1 [Compound I-43, 1-(3-methoxyphenyl)-6-((4-(trifluoromethyl)pyridin-2-yl)amino)-1,2-dihydro-3H-pyrazolo[4,3-c]pyridin-3-one] |  | > 90 µM
15 | O=c1[nH]n(-c2cc(Cl)cc(Cl)c2)c2cc(Nc3ccc(F)cn3)ncc12 [Compound I-97, 1-(3,5-dichlorophenyl)-6-((5-fluoropyridin-2-yl)amino)-1,2-dihydro-3H-pyrazolo[4,3-c]pyridin-3-one] |  | > 90 µM
16 | Cc1cc(Nc2cc3c(cn2)c(=O)[nH]n3-c2ccc(C(N)=O)cc2)nc(C)n1 [Compound I-123, 4-(6-((2,6-dimethylpyrimidin-4-yl)amino)-3-oxo-2,3-dihydro-1H-pyrazolo[4,3-c]pyridin-1-yl)benzamide] |  | > 90 µM
17 | COc1cccc(-n2[nH]c(=O)c3cnc(NC(=O)C4(O)CC4)cc32)c1 [Compound I-124, 1-hydroxy-N-(1-(3-methoxyphenyl)-3-oxo-2,3-dihydro-1H-pyrazolo[4,3-c]pyridin-6-yl)cyclopropane-1-carboxamide] |  | < 10 µM

Continued, values first:

Row | IC50 (TYK2 [1]) | IC50 (TYK2 [2]) | Compound
18 | 10 to 30 µM | < 10 µM | Cn1ccc(Nc2cc3c(cn2)c(=O)[nH]n3-c2ccccc2)n1 [Compound I-4, 6-((1-methyl-1H-pyrazol-3-yl)amino)-1-phenyl-1,2-dihydro-3H-pyrazolo[4,3-c]pyridin-3-one]
19 | < 10 µM | < 10 µM | Cc1cc(Nc2cc3c(cn2)c(=O)[nH]n3-c2ccccc2)ncc1F [Compound I-6, 6-((5-fluoro-4-methylpyridin-2-yl)amino)-1-phenyl-1,2-dihydro-3H-pyrazolo[4,3-c]pyridin-3-one]
20 | 10 to 30 µM | < 10 µM | Cc1nc(Nc2cc3c(cn2)c(=O)[nH]n3-c2ccccc2)cc(OC(C)C)n1 [Compound I-8, 6-((6-isopropoxy-2-methylpyrimidin-4-yl)amino)-1-phenyl-1,2-dihydro-3H-pyrazolo[4,3-c]pyridin-3-one]
21 | 10 to 30 µM | < 10 µM | Cc1cc(Nc2cc3c(cn2)c(=O)[nH]n3-c2cccc(C#N)c2)nc(C)n1 [Compound I-18, 3-(6-((2,6-dimethylpyrimidin-4-yl)amino)-3-oxo-2,3-dihydro-1H-pyrazolo[4,3-c]pyridin-1-yl)benzonitrile]
22 | 10 to 30 µM | < 10 µM | COc1ccc(-n2[nH]c(=O)c3cnc(NC(=O)C4CC4)cc32)cc1 [Compound I-19, N-(1-(4-methoxyphenyl)-3-oxo-2,3-dihydro-1H-pyrazolo[4,3-c]pyridin-6-yl)cyclopropanecarboxamide]
23 | 10 to 30 µM | < 10 µM | COc1c(-c2ncn(C)n2)cccc1-n1[nH]c(=O)c2cnc(Nc3cc(C)nc(C)n3)cc21 [Compound I-22, 6-[(2,6-dimethylpyrimidin-4-yl)amino]-1-[2-methoxy-3-(1-methyl-1H-1,2,4-triazol-3-yl)phenyl]-1H,2H,3H-pyrazolo[4,3-c]pyridin-3-one]
24 | 10 to 30 µM | < 10 µM | Cc1cc(Nc2cc3c(cn2)c(=O)[nH]n3-c2cccc(-c3ncn(C)n3)c2)nc(C)n1 [Compound I-23, 6-((2,6-dimethylpyrimidin-4-yl)amino)-1-(3-(1-methyl-1H-1,2,4-triazol-3-yl)phenyl)-1,2-dihydro-3H-pyrazolo[4,3-c]pyridin-3-one]
25 | < 10 µM | < 10 µM | CS(=O)(=O)c1ccccc1-n1[nH]c(=O)c2cnc(Nc3ccc(F)cn3)cc21 [Compound I-26, 6-((5-fluoropyridin-2-yl)amino)-1-(2-(methylsulfonyl)phenyl)-1,2-dihydro-3H-pyrazolo[4,3-c]pyridin-3-one]
26 | < 10 µM | < 10 µM | Cc1cc(Nc2cc3c(cn2)c(=O)[nH]n3-c2cccc(OC(F)(F)F)c2)nc(C)n1 [Compound I-28, 6-((2,6-dimethylpyrimidin-4-yl)amino)-1-(3-(trifluoromethoxy)phenyl)-1,2-dihydro-3H-pyrazolo[4,3-c]pyridin-3-one]
27 | < 10 µM | < 10 µM | Cc1cc(Nc2cc3c(cn2)c(=O)[nH]n3-c2cccc(C(F)(F)F)c2)ncc1F [Compound I-29, 6-((5-fluoro-4-methylpyridin-2-yl)amino)-1-(3-(trifluoromethyl)phenyl)-1,2-dihydro-3H-pyrazolo[4,3-c]pyridin-3-one]
28 | 10 to 30 µM | < 10 µM | Cc1cc(Nc2cc3c(cn2)c(=O)[nH]n3-c2cccnc2)nc(C)n1 [Compound I-30, 6-((2,6-dimethylpyrimidin-4-yl)amino)-1-(pyridin-3-yl)-1,2-dihydro-3H-pyrazolo[4,3-c]pyridin-3-one]
29 | < 10 µM | < 10 µM | Cc1cc(Nc2cc3c(cn2)c(=O)[nH]n3-c2cccc(Cl)c2)nc(C)n1 [Compound I-31, 1-(3-chlorophenyl)-6-((2,6-dimethylpyrimidin-4-yl)amino)-1,2-dihydro-3H-pyrazolo[4,3-c]pyridin-3-one]
30 | < 10 µM | < 10 µM | COc1cccc(-n2[nH]c(=O)c3cnc(Nc4cc(C)nc(C)n4)cc32)n1 [Compound I-33, 6-((2,6-dimethylpyrimidin-4-yl)amino)-1-(6-methoxypyridin-2-yl)-1,2-dihydro-3H1-pyrazolo[4,3-c]pyridin-3-one]

From US12668594B2, “TYK2 inhibitors and uses thereof” (Sudo Biosciences Limited, priority 2020, dated 2026)
